# Laboratory results: the supplement of paper PMC11208160
# Test: recombinant UMI read abundance after kanamycin selection (control-corrected) (log10(CPM+1)); higher = more efficient recombination; extreme values may be limits of the assay; sequences stand for … in AGTGCAGAGAAAATCGGCCAGTTTTCTCTGCCTGCAGTCCGCATGCCGTGGGACCCCTTGGGTTCTAACCTGTTGCCTAGATTTATGCAGCGGACTGCCTTTCTCCCAAAGTGATAAACCGG…AGGTTGGTTTCACT; site = the 11-nt donor
# Method in brief: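 Pooled Escherichia coli screen of donor and donor-binding-loop pairs for the IS621 bridge recombinase. Each pair sits with a 12-nt UMI on a plasmid carrying a promoterless kanamycin gene. The library was co-electroporated with a target plasmid encoding a fixed target and T7-inducible recombinase, then plated with IPTG (0.07 mM) plus kanamycin, or unselected, each in two replicates. Recombinant UMIs were PCR-amplified across the donor–target junction and sequenced. Counts became CPM, averaged over replicates, scaled by control-derived factors and reported as log10(CPM+1).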
row,Sequence,recombinant UMI read abundance (log10)
1,CGGTTGGCATGGACCGGTTTTCCCGGTAATCCGTATTTGCT (site CGTTTGGCTAG),0
2,AACCGTCCATGGACCGGTTTTCCCGGTAATCCGTATTTGAT (site AACCATCCTAT),0.62
3,ACATCTACATGGACCGGTTTTCCCGGTAATCCGTATTTGTG (site ACGTCTACTCA),0.0191
4,GGCAATCCATGGACCGGTTTTCCCGGTAATCCGTATTTGGA (site GGCAATCCTTT),0.00891
5,GTGATGACATGGACCGGTTTTCCCGGTAATCCGTATTTGGC (site GTGATGACTGC),2.09
6,ACGAATCCATGGACCGGTTTTCCCGGTAATCCGTATTTGTT (site ACGAATCCTAA),1.32
7,AACCTCCCATGGACCGGTTTTCCCGGTAATCCGTATTTGGC (site AACCTCCCTGC),0
8,ACGTCTGCATGGACCGGTTTTCCCGGTAATCCGTATTTGCT (site ACGTCTGCTAG),1.98
9,AATGGGTCATGGACCGGTTTTCCCGGTAATCCGTATTTGAC (site AATGAGTCTGT),0.146
10,ACACGAACATGGACCGGTTTTCCCGGTAATCCGTATTTGAC (site ACACGAACTGC),0
11,TATGCCACATGGACCGGTTTTCCCGGTAATCCGTATTTGTA (site TATGCCACTTA),0.598
12,CACTCCGCATGGACCGGTTTTCCCGGTAATCCGTATTTGCC (site CACTCCGCTGG),2.73
13,ATTGAGACATGGACCGGTTTTCCCGGTAATCCGTATTTGCT (site ATTGAGACTAC),0.379
14,TCCAAATCATGGACCGGTTTTCCCGGTAATCCGTATTTGCC (site TCCAAGTCTGG),0
15,TGGCCGGCATGGACCGGTTTTCCCGGTAATCCGTATTTGGT (site TGGCCGGCTCC),0.022
16,CAAGCAACATGGACCGGTTTTCCCGGTAATCCGTATTTGCT (site CAAGCAACTAG),1.57
17,TTGACAACATGGACCGGTTTTCCCGGTAATCCGTATTTGAC (site TTGACAACTGT),1.62
18,CTTCTCTCATGGACCGGTTTTCCCGGTAATCCGTATTTGTA (site CTTCTCTCTAA),0.394
19,CAGAATACATGGACCGGTTTTCCCGGTAATCCGTATTTGTT (site CAGAATACTAA),2.12
20,AGGTTTCCATGGACCGGTTTTCCCGGTAATCCGTATTTGTG (site AGGTTGCCTCA),0.00446
21,CAAGGTGCATGGACCGGTTTTCCCGGTAATCCGTATTTGAT (site CAAGGTGCTAT),2.52
22,AATTATGCATGGACCGGTTTTCCCGGTAATCCGTATTTGGA (site AATTATGCTTT),0.359
23,GAAGTAGCATGGACCGGTTTTCCCGGTAATCCGTATTTGGG (site GAAGTAGCTCC),0.618
24,CGGAATCCATGGACCGGTTTTCCCGGTAATCCGTATTTGTT (site CGGTGTCCTAA),0.0136
25,CCGAGCGCATGGACCGGTTTTCCCGGTAATCCGTATTTGAA (site CCGAGCGCTTT),0.998

row,Sequence,recombinant UMI read abundance (log10)
1,GTATGCACATGGACCGGTTTTCCCGGTAATCCGTATTTGTG (site GTATGCACTAA),0.198
2,CCCCACACATGGACCGGTTTTCCCGGTAATCCGTATTTGAA (site CCCCACACTTC),0.33
3,CACGCAGCATGGACCGGTTTTCCCGGTAATCCGTATTTGCT (site CACGCAGCTAG),2.31
4,CTTCTCTCATGGACCGGTTTTCCCGGTAATCCGTATTTGTA (site CTGCTCTCTTA),0.693
5,CGGGAGTCATGGACCGGTTTTCCCGGTAATCCGTATTTGCC (site CGGGGGTCTGG),1.3
6,CGTGGAACATGGACCGGTTTTCCCGGTAATCCGTATTTGTC (site CGTGGAACTGA),1.94
7,CGGGAGCCATGGACCGGTTTTCCCGGTAATCCGTATTTGCC (site CGGGAGACTGG),0.0249
8,AGGTCAGCATGGACCGGTTTTCCCGGTAATCCGTATTTGGG (site AGCTCAGCTCC),0.0149
9,CCTTTAGCATGGACCGGTTTTCCCGGTAATCCGTATTTGTG (site CCCTTAGCTCA),0.00968
10,GTAGGTACATGGACCGGTTTTCCCGGTAATCCGTATTTGAA (site GTAGGTACTAT),0
11,TAATGAGCATGGACCGGTTTTCCCGGTAATCCGTATTTGAG (site TAATGAGCTCG),0.341
12,AGGCTGTCATGGACCGGTTTTCCCGGTAATCCGTATTTGTT (site AGGCTGTCTAA),1.64
13,AGTAGAACATGGACCGGTTTTCCCGGTAATCCGTATTTGAG (site ATTAGAACTCT),0.418
14,CGGGAGTCATGGACCGGTTTTCCCGGTAATCCGTATTTGCC (site CAGGAGTCTGG),2.51
15,CAATGCTCATGGACCGGTTTTCCCGGTAATCCGTATTTGTA (site CAATGCTCTTA),3.1
16,AGGAAGACATGGACCGGTTTTCCCGGTAATCCGTATTTGCT (site AGGAAGACTGG),0
17,GGTACTGCATGGACCGGTTTTCCCGGTAATCCGTATTTGCC (site GGTACTGCTGG),1.58
18,GCTACTGCATGGACCGGTTTTCCCGGTAATCCGTATTTGCC (site CCTACTGCTGG),0.983
19,CCCGTCTCATGGACCGGTTTTCCCGGTAATCCGTATTTGGG (site CCCCTCTCTCC),0.0424
20,GGGGTTCCATGGACCGGTTTTCCCGGTAATCCGTATTTGAA (site GGGGTTCCTTT),0
21,CCCCGTACATGGACCGGTTTTCCCGGTAATCCGTATTTGCT (site CTCCGTACTAG),0.542
22,GGTACTGCATGGACCGGTTTTCCCGGTAATCCGTATTTGCC (site GTTACTGCTGG),0
23,TAGAATACATGGACCGGTTTTCCCGGTAATCCGTATTTGCA (site TAGAATACTGG),0
24,CAGTCGACATGGACCGGTTTTCCCGGTAATCCGTATTTGCG (site CAGTCGACTCG),0.869
25,TCACCGCCATGGACCGGTTTTCCCGGTAATCCGTATTTGGG (site TCACCGCCTCC),0.0301

row,Sequence,recombinant UMI read abundance (log10)
1,ACAGCTACATGGACCGGTTTTCCCGGTAATCCGTATTTGTG (site ACATCTACTCA),0.0498
2,GAATGGGCATGGACCGGTTTTCCCGGTAATCCGTATTTGCA (site GAATGGGCTTG),2.42
3,TGCTCCCCATGGACCGGTTTTCCCGGTAATCCGTATTTGTA (site TGCTCCCCTTA),0.00702
4,CGATCACCATGGACCGGTTTTCCCGGTAATCCGTATTTGAT (site CGATCATCTAG),0
5,CACTCCACATGGACCGGTTTTCCCGGTAATCCGTATTTGCC (site CACTCCTCTGG),1.26
6,GCCCACCCATGGACCGGTTTTCCCGGTAATCCGTATTTGTT (site GGCCACCCTAA),0.0315
7,CTCGTATCATGGACCGGTTTTCCCGGTAATCCGTATTTGAC (site CTTGTATCTGT),0
8,CCGTTTACATGGACCGGTTTTCCCGGTAATCCGTATTTGCG (site CCGTTTACTCG),0.0437
9,ACTTTATCATGGACCGGTTTTCCCGGTAATCCGTATTTGCA (site ACAGTATCTTG),2.35
10,ATCCCTACATGGACCGGTTTTCCCGGTAATCCGTATTTGAG (site GTCCCTACTCT),0.0127
11,CTTCTTTCATGGACCGGTTTTCCCGGTAATCCGTATTTGTA (site CTTCTTTCTTA),0
12,GAAGATTCATGGACCGGTTTTCCCGGTAATCCGTATTTGCT (site GAAGATTCTAC),0
13,AGATAGGCATGGACCGGTTTTCCCGGTAATCCGTATTTGCA (site AGATAGGCTTG),2.72
14,GTATTCGCATGGACCGGTTTTCCCGGTAATCCGTATTTGCG (site GTACTCGCTCG),0.406
15,ATATACCCATGGACCGGTTTTCCCGGTAATCCGTATTTGCG (site ATATACCCTCG),0.817
16,CACTCCTCATGGACCGGTTTTCCCGGTAATCCGTATTTGCC (site CACTCCTCTTG),2.48
17,GTTTTTCCATGGACCGGTTTTCCCGGTAATCCGTATTTGGT (site GTTATTCCTAC),0.0038
18,TGATAGACATGGACCGGTTTTCCCGGTAATCCGTATTTGCC (site CGATAGACTGG),2.02
19,TCCACCGCATGGACCGGTTTTCCCGGTAATCCGTATTTGCG (site TCCACAGCTCG),0.00578
20,ATCAATACATGGACCGGTTTTCCCGGTAATCCGTATTTGAC (site ATCGATACTGT),2.2
21,AATTATCCATGGACCGGTTTTCCCGGTAATCCGTATTTGGA (site AATTATGCTTC),0.0173
22,ACGCGCACATGGACCGGTTTTCCCGGTAATCCGTATTTGTT (site ACGCGCACTAA),1.61
23,GATCTGCCATGGACCGGTTTTCCCGGTAATCCGTATTTGAA (site GATCTGCCTTT),0.00302
24,CACTCCACATGGACCGGTTTTCCCGGTAATCCGTATTTGCC (site CACTCCCCTGG),0
25,AATGTGTCATGGACCGGTTTTCCCGGTAATCCGTATTTGAG (site AATGTGTCTAT),1.43
